Experiments:
[1] = molecular target: TEAD1 protein (YAP Binding Domain) (Homo sapiens, UniProt P28347); assay: biochemical
Procedure: Compound Displacement Assay.
A TEAD1 lipid pocket displacement assay was carried out according to the following protocol. Purified His-tagged TEAD1 protein (YAP Binding Domain) was pre-mixed with a Cy5-probe (Cy5-conjugated to a small molecule that binds in the TEAD1 lipid pocket) and Terbium-labeled anti-His antibody (Cisbio Cat 61HI2TLB). The binding of the Cy5-probe to anti-His-Tb/His-tag TEAD1 complex yielded a TR-FRET signal. […] After 60 minutes incubation at room temperature of compounds with the His-TEAD1/anti-His-Tb/Cy5-probe complex, the plate was read on a plate reader (BMG ClarioStar Cat 430-1300) using TR-FRET mode with wavelengths of 665 nm/620 nm. The potency of compounds as TEAD1 lipid pocket binders was determined by IC50 value generated using a non-linear 4 parameter curve fit.

[2] = system: mesothelioma cell line NCI-H226; assay: 72H TEAD Proliferation Assay (Cell Titer-Glo 2.0); type: cell-based; conditions: Homo sapiens, CTG 2.0, cell line not given in Table 1 (NCI-H226 TEAD-responsive, NCI-H28 non-responsive counter-screen)
Procedure: 72H TEAD Proliferation Assay.
The effect of TEAD inhibition on cell proliferation was assayed using Cell Titer Glo (CTG) 2.0 to measure response in mesothelioma cell lines NCI-H226 (ATCC, #CRL-5826) and NCI-H28 (ATCC, #CRL-5820).
The 72H TEAD Proliferation assay utilizes Cell Titer-Glo 2.0 (Promega, #G9243) to measure the proliferation of cells in the presence or absence of compound. Cell Titer-Glo 2.0 determines the amount of viable cells by quantifying ATP (an indication of metabolically active cells). It utilizes the conversion of Luciferin to Oxyluciferin and a luminescent signal with the use of ATP to report the quantity of viable cells in culture. Within cells that are continually growing, ATP is being synthesized to meet their metabolic demands, meanwhile the opposite is true for cells that are dying or slowing down their proliferation and either no longer using ATP or are using less, respectively. The NF2-deficient NCI-H226 has been genetically validated as a cell line that is sensitive to TEAD inhibition. The NF2-wild type NCI-H28 has been genetically validated as a cell line that is not sensitive to TEAD inhibition and grows independently of TEAD activity.
Compounds were screened against the responsive NCI-H226 cell line to assess the compounds' ability to inhibit TEAD and cell growth. Compounds were also screened against the non-responsive NCI-H28 cell line to ascertain whether the inhibition of cell growth was due to inhibition of the target TEAD or whether the inhibition was due to off-target cytotoxicity.
Both NCI-H226 and NCI-H28 cells were grown at 37° C. with 5% CO2 using Growth Medium 1.
Anti-proliferative effect of compounds that inhibits TEAD activity measured by CTG
1) Assay ready plates (ARPs) were prepared by Echo acoustic liquid handler. For each compound, duplicate of 10-point half-log dilution series were dispensed in a 384-well microplate (Corning 3571).
3) Before use, ARPs were allowed to warm up to room temperature for 30 min.
4) ARPs were spun for 5 minutes at 1500RPM before removing the plate seals.
5) NCI-H226 or NCI-H28 cells were harvested from culture in Assay Medium 1 and the multidrop Combi reagent dispenser was used to seed cells at 500 cells per 50ul in each well of the ARPs and one Corning 3571 plate without compounds for Time 0 (TO) readout.
6) The TO plate was incubated for 2 hours at 37° C. with 5% CO2 to allow cells to settle, then the CTG Assay was performed.
7) All ARPs were incubated for 72 hours at 37° C. with 5% CO2, then the CTG Assay was performed for Time 72H (T72) readout.
8) CTG Assay: Bravo liquid handler (Agilent) was used to add 25ul of CTG 2.0 to all columns of the plate except for Column 24, which was used to subtract out the background. After CTG addition, plates were placed on shaker at 800RPM for 15 minutes at room temperature and kept in the dark. Luminescence was measured using EnVision multilabel plate reader with ultra-sensitive detection module.
9) Data Analysis: First background luminescence (no CTG wells) was subtracted from luminescence reading of all wells, then TO luminescence was subtracted from T72 luminescence. To compare anti-proliferative effect of compounds, GI50 was obtained by fitting dose response curves with nonlinear regression curve fit.

Chain of TEAD1 protein (YAP Binding Domain) (P28347 167-426 limits assumed): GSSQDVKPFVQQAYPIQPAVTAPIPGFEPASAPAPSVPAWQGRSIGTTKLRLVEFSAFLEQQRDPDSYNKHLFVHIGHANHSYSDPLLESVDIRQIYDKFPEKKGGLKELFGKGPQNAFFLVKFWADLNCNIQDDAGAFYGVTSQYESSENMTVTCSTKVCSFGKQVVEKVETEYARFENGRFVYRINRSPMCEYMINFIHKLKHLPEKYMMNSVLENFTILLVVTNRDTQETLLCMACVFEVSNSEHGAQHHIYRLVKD

Structure (SMILES) | IC50 [1] [nM] | GI50 [2] [nM]
COc1cc(-c2ccc(C(C)(C)C)cc2)c2ncc(C(=O)N[C@H](C)CO)cc2c1 [I′-33, (R)-8-(4-(tert-butyl)phenyl)-N-(1-hydroxypropan-2-yl)-6-methoxyquinoline-3-carboxamide] | 150 to 300 | 500 to 1000
Cc1cc2cc(C(=O)N[C@H](C)CO)ccc2c(N2CCC(C(F)(F)F)CC2)n1 [Compound I-48, (R)-N-(1-hydroxypropan-2-yl)-3-methyl-1-(4-(trifluoromethyl)piperidin-1-yl)isoquinoline-6-carboxamide] | 150 to 300 | ≤ 500
COc1ccc2c(N3CCC(C(F)(F)F)CC3)nc(C(=O)N[C@H](C)CO)cc2c1 [Compound 67, (R)-N-(1-hydroxypropan-2-yl)-6-methoxy-1-(4-(trifluoromethyl)piperidin-1-yl)isoquinoline-3-carboxamide] | > 500 | > 5000
COc1cc(N2CCC3(CCCC3)CC2)c2ncc(C(=O)N[C@H](C)CO)cc2c1 [Compound I-4, (R)-N-(1-hydroxypropan-2-yl)-6-methoxy-8-(8-azaspiro[4.5]decan-8-yl)quinoline-3-carboxamide] | 150 to 300 | 500 to 1000
CCOc1cc2cc(C(=O)N[C@H](C)CO)ccc2c(N2CCC(C(F)(F)F)CC2)n1 [Compound I-62, (R)-3-ethoxy-N-(1-hydroxypropan-2-yl)-1-(4-(trifluoromethyl)piperidin-1-yl)isoquinoline-6-carboxamide] | < 150 | ≤ 500
COC[C@H](C)NC(=O)c1ccc2c(-c3ccc(C(F)(F)F)cc3)nc(OC)cc2c1 [I″-54, (S)-3-Methoxy-N-(1-methoxypropan-2-yl)-1-(4-(trifluoromethyl)phenyl)isoquinoline-6-carboxamide] | < 150 | ≤ 500
COc1cc(N2CCC(C(F)(F)F)CC2)c2ncc(C(=O)N[C@@H](CO)C3CC3)cc2c1 [Compound I-36] | 150 to 300 | 500 to 1000
CC[C@@H](CO)NC(=O)c1cnc2c(N3CCC(C(F)(F)F)CC3)cc(OC)cc2c1 [Compound I-14, (S)-N-(1-hydroxybutan-2-yl)-6-methoxy-8-(4-(trifluoromethyl)piperidin-1-yl)quinoline-3-carboxamide] | 150 to 300 | 1000 to 5000
COc1cc2cc(C(=O)N[C@H](C)CO)ccc2c(N2CCC(C(F)(F)F)CC2)n1 [Compound I-49, (R)-N-(1-hydroxypropan-2-yl)-3-methoxy-1-(4-(trifluoromethyl)piperidin-1-yl)isoquinoline-6-carboxamide] | < 150 | ≤ 500
COC[C@H](C)NC(=O)c1ccc2c(N3CCC(C(F)(F)F)CC3)nc(OC)cc2c1 [Compound I-50, (S)-3-Methoxy-N-(1-methoxypropan-2-yl)-1-(4-(trifluoromethyl)piperidin-1-yl)isoquinoline-6-carboxamide] | < 150 | 500 to 1000
CC(CO)NC(=O)c1cnc2c(OCC3CCC(F)(F)CC3)cccc2c1 (centres unmarked) [Compound I-47, 8-((4,4-difluorocyclohexyl)methoxy)-N-(1-hydroxypropan-2-yl)quinoline-3-carboxamide] | > 500 | > 5000
COc1cc(-c2ccc(OC(F)F)cc2)c2ncc(C(=O)N[C@H](C)CO)cc2c1 [Compound I-17, (R)-8-(4-(difluoromethoxy)phenyl)-N-(1-hydroxypropan-2-yl)-6-methoxyquinoline-3-carboxamide] | < 150 | ≤ 500
COc1cc(N2CCC(C(F)(F)F)CC2)c2ncc(C(=O)NC(C)C)cc2c1 [Compound I-38, N-isopropyl-6-methoxy-8-(4-(trifluoromethyl)piperidin-1-yl)quinoline-3-carboxamide] | 150 to 300 | ≤ 500
COc1cc(-c2ccc(C(C)(C)O)cc2)c2ncc(C(=O)N[C@H](C)CO)cc2c1 [I′-34, (R)-N-(1-hydroxypropan-2-yl)-8-(4-(2-hydroxypropan-2-yl)phenyl)-6-methoxyquinoline-3-carboxamide] | 300 to 500 | > 5000
COc1cc(N2CCC(C(F)(F)F)CC2)c2ncc(C(=O)N[C@@H](CO)C(C)(C)C)cc2c1 [Compound I-40, (R)-N-(1-hydroxy-3,3-dimethylbutan-2-yl)-6-methoxy-8-(4-(trifluoromethyl)piperidin-1-yl)quinoline-3-carboxamide] | 150 to 300 | 500 to 1000
COc1cc(N2CCC(C(F)(F)F)CC2)c2ncc(C(=O)N3CC(O)C3)cc2c1 [Compound I-11, (3-hydroxyazetidin-1-yl)(6-methoxy-8-(4-(trifluoromethyl)piperidin-1-yl)quinolin-3-yl)methanone] | > 500 | 1000 to 5000
COc1cc(-c2ccc(OC(C)(C)C)cc2)c2ncc(C(=O)N[C@H](C)CO)cc2c1 [Compound I-16, (R)-8-(4-(tert-butoxy)phenyl)-N-(1-hydroxypropan-2-yl)-6-methoxyquinoline-3-carboxamide] | 150 to 300 | 1000 to 5000
COC[C@H](C)NC(=O)c1cnc2c(N3CCC(C(F)(F)F)CC3)cc(OC(F)F)cc2c1 [Compound I-28, (S)-6-(difluoromethoxy)-N-(1-methoxypropan-2-yl)-8-(4-(trifluoromethyl)piperidin-1-yl)quinoline-3-carboxamide] | 150 to 300 | 500 to 1000
COc1cc(N2CCC3(CC2)CC(F)(F)C3)c2ncc(C(=O)N[C@H](C)CO)cc2c1 [Compound I-6, (R)-8-(2,2-difluoro-7-azaspiro[3.5]nonan-7-yl)-N-(1-hydroxypropan-2-yl)-6-methoxyquinoline-3-carboxamide] | < 150 | 500 to 1000
C[C@H](CO)NC(=O)c1ccc2c(N3CCC(C(F)(F)F)CC3)nccc2c1 [Compound I-63, (R)-N-(1-hydroxypropan-2-yl)-1-(4-(trifluoromethyl)piperidin-1-yl)isoquinoline-6-carboxamide] | 300 to 500 | 1000 to 5000
C[C@H](CO)NC(=O)c1cnc2c(N3CCC4(CC3)CC4)cc(OC3CC3)cc2c1 [Compound I-25, (R)-6-cyclopropoxy-N-(1-hydroxypropan-2-yl)-8-(6-azaspiro[2.5]octan-6-yl)quinoline-3-carboxamide] | > 500 | 1000 to 5000
C[C@H](NC(=O)c1ccc2c(N3CCC(C(F)(F)F)CC3)nccc2c1)c1ccccn1 [Compound I-51, (S)-N-(1-(Pyridin-2-yl)ethyl)-1-(4-(trifluoromethyl)piperidin-1-yl)isoquinoline-6-carboxamide] | < 150 | ≤ 500
C[C@H](CO)NC(=O)c1ccc2c(N3CCC(C(F)(F)F)CC3)cccc2c1 [Compound I-59, (R)-N-(1-hydroxypropan-2-yl)-5-(4-(trifluoromethyl)piperidin-1-yl)-2-naphthamide] | 150 to 300 | ≤ 500
COc1cc(N2CCC(C(F)(F)F)CC2)c2ncc(C(=O)N[C@H](C)C(=O)O)cc2c1 [Compound I-42, (6-Methoxy-8-(4-(trifluoromethyl)piperidin-1-yl)quinoline-3-carbonyl)-D-alanine] | 150 to 300 | > 5000
CC(NC(=O)c1cnc2c(OCC3CCC(F)(F)CC3)cccc2c1)c1ccccn1 (centres unmarked) [Compound I-46, 8-((4,4-Difluorocyclohexyl)methoxy)-N-(1-(pyridin-2-yl)ethyl)quinoline-3-carboxamide] | 300 to 500 | 1000 to 5000

Reference: patent publication US20230053649A1 (Cedilla Therapeutics, Inc., priority 2021, published 2023)
